In patent US11413321B2, “Pharmaceutical composition for use in increasing hair, modifying scalp or skin, healing a wound, promoting osteogenesis, or modifying hair” (priority 2017, dated 2022):

Test system: Cxcl12
Test: Quantitative PCR of dorsal tissues after subcutaneous administration (Cxcl12)
Format: in vivo, Wistar rat
Details: 20 μL per location into rat dorsal part; vs control without administration; FIG. 15
Description: 2.) C—X—C motif chemokine ligand 12 (Cxcl12), transcript variant 1, Rattus norvegicus: mRNA 1,880 bp NM 022177.3 GI: 7649650 Next, a change in gene expression in tissues was examined. Three regions were set between the head and the tail of the dorsal part of a 12-week-old Wistar rat (male), and each region was divided between the left and the right of the backbone into two regions to set a total of six regions on the dorsal part. Milk or palmitic acid was injected in an amount of 20 μL per location at two locations in the vicinity of the center of each region. The distance between the two locations was 1 cm. The collected tissue fragments were frozen with liquid nitrogen, and stored at −80° C. […] Analysis of gene expression by quantitative PCR was performed in the following manner: Integrated DNA technologies, Inc (Skokie, Ill., USA) was requested to design and synthesize gene-specific primers and probes, and using PrimeTime Gene Expression Master Mix Reagent (Integrated DNA Technologies, Inc, Skokie, Ill., USA) and Rotor-Gene Q PCR Apparatus (QIAGEN GmbH, Hilden, Germany), PCR analysis was performed twice per gene per specimen to analyze the expression level of a target gene. […]

SMILES: CCCCCCCCCCCCCCCC(=O)O [palmitic acid]
- expression level of Cxcl12 in tissues: greatly increased
